Measurements: patent publication US8916717B2, “Dioxaspiroketal derivatives, process for their preparation and uses thereof” (Consiglio Nazionale Delle Ricerche, priority 2006, dated 2014)
Like-named read-outs stand apart in the source and are kept apart here. Blank lines part the entries; values can stand above or below the compound they belong to.

Legend:
[1] = biological target: Cδ protein kinase (Homo sapiens, UniProt Q05655); details: Watters et al., 1998; cited from earlier work
[2] = system: MCF-7 cells; assay: Cell proliferation and viability determination (trypan blue dye exclusion cell counts); format: cell-based, human; details: 1.25 μg/ml
Description: The study has been carried out using representative tumor cell lines with different histological origin: MCF-7 breast carcinoma (human), M14 (human) and B16 (murine) melanomas, H125 (human) pulmonary carcinoma, HT-29 (human) colon carcinoma, HL-60 (human) promyelocytic leukemia.
All cell lines have been cultured in RPMI-1640 (Hyclone Europe, Cramlington, UK) medium supplemented with 10% of heat inactivated (56° C., 30 minutes) bovine fetal serum (Hyclone Laboratories, Logan, Utah), 2 mM L-glutamine and antibiotics (Life Technologies Ltd., Paisley, Scotland) (complete medium, CM). Cells have been stored at 37° C. in humidified atmosphere with 5% CO2.
Cell suspensions (HL-60) have been harvested and counted. Plastic adherent cells, in semi-confluence condition, have been detached by a short exposure at 0.025% trypsin with 0.01% EDTA and counted.
All used tumor cells have been harvested, suspended in CM and seeded in 24-well plates at 10^5 cell concentration in a final volume of 2 ml/well. For adherent cells a pre-incubation for 18 hours has been carried out in order to promote the adhesion to plastic. […] The cell proliferation, viability and death have been determined by means of cell counts in trypan blue (dye exclusion test) using a hemocytometer.

[3] = system: M14 malignant melanoma cells; assay: Cell cycle by flow cytometry analysis (propidium iodide); format: cell-based, human; details: M14, starting from 10 μg/ml dose, after 24 hours of treatment
Description: (§1) For apoptosis and cellular cycle analysis, control or various concentration MS treated cells have been removed from the culture by means of trypsinization, re-suspended in PBS, washed two times with cold PBS and fixed with 50% of acetone and methanol (1:4) in PBS at 4° C. Fixed cells then were washed in PBS and stained with propidium iodide 50 μg/ml (PI) in the presence of RNase A 100 KU/ml.
(§2) Samples have been analyzed using a FACScan cytometer and fluorescence propidium red signals have been registered on linear scale. Cell fluorescence has been analyzed using a FACScan flow cytometer (Becton Dickinson, USA) using a 488 nm emitting argon laser. Data have been analyzed electronically excluding detritus and cell aggregates. In the red fluorescence, that is proportional to the DNA cell content, the apoptotic cells are represented by hypodiploid peak (cells with DNA fractioned content), easy distinguishable from the healthy cell DNA diploid peak. The fraction of the apoptotic cells is calculated integrating the pre-G1 peak. This cell fraction is representative for those having a PI decreasing coloration, considered a marker of DNA fragmentation, phenomenon associated to cell death by apoptosis. The analysis of cell cycle distribution after 24, 48 and 72 hours of MS treatment has been carried out using ModFitLT software (Becton Dickinson Immunocytometry Systems).

[4] = system: M14 cell line (melanoma); assay: Cell apoptosis and necrosis by flow cytometry analysis; format: cell-based, human
Description: as §1
as §2, with “This cell fraction is representative for those having a PI decreasing coloration, considered a marker of DNA fragmentation, phenomenon associated to cell death by apoptosis. The analysis of cell cycle distribution after 24, 48 and 72 hours of MS treatment has been carried out using ModFitLT software (Becton Dickinson Immunocytometry Systems).” left out
For the necrosis evaluation, an aliquot of not fixed cells (1×10^6) was incubated with 40 μg/ml PI for 1.5 hour at 37° C. The samples, directly in their coloring solution, have been then analyzed using FACScan flow. […] Apoptotic cells have been detected by FSC/PI dot plot as PI^dim peak, meanwhile P^− and PI^bright represent viable and necrotic cells, respectively.

[5] = biological target: T1, telomerase (Homo sapiens, UniProt O14746); assay: Telomerasic activity (TeloTAGGG Telomerase PCR ELISA) in extracts of treated tumor cells; format: cell-based; details: 48 hours; for telomerase enzymatic activity: 1.25 μg/ml; for inhibition at 12.5 µg/mL / inhibition at 25 µg/mL: read-out: telomerase inhibition in comparison to control
T1 construct: endogenous in cells; host or cells: MCF-7, H-125 and M14 tumour cells
T1 sequence (O14746 whole entry): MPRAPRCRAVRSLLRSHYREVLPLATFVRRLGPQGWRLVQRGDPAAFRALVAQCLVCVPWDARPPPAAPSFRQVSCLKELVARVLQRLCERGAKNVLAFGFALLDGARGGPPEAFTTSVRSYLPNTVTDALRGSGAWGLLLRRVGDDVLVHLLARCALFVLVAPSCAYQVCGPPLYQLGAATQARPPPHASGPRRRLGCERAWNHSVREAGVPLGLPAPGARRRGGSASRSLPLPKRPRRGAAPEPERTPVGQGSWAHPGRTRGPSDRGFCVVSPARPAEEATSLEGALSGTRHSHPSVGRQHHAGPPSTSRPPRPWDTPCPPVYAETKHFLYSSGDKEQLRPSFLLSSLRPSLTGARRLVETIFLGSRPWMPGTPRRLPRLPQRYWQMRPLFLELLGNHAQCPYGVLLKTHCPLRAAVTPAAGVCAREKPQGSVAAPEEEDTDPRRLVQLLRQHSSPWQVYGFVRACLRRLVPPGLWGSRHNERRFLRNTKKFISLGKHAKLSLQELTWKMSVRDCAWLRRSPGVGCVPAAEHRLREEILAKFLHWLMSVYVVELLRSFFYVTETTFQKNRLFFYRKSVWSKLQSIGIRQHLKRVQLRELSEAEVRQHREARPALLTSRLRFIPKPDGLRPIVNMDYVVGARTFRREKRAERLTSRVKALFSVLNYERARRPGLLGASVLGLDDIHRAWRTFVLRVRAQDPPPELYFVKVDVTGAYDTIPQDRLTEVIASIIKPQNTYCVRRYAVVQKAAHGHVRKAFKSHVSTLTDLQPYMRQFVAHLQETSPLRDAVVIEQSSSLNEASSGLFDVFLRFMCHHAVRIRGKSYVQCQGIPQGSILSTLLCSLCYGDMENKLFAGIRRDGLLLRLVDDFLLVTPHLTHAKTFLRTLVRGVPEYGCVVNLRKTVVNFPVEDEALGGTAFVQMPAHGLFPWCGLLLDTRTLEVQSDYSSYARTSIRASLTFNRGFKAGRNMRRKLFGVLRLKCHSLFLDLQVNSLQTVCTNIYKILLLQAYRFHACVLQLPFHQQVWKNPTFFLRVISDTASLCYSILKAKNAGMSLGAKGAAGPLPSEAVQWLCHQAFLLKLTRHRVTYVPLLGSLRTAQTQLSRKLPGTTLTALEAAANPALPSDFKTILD
Description: Telomerasic activity was evaluated using TeloTAGGG Telomerase PCR ELISA kit, photometric enzymatic immunoassay from Roche (Mannheim, Germany). At time of the test, frozen pellet was lysed directly in the tests-tube using 80 μl of cold extraction buffer. Telomerase amplification was carried out by PCR (30 cycles, 94° C. 30 sec; 52° C. 30 sec; 72° C. 45 sec). Telomerasic activity was determined on the cell extracts according to the protocol recommended by the supplier. Sample absorbance (OD, optical density) was measured at 450 nm in a multi-well plate reader (SpectraCount, Pakard, Meriden, Conn., USA). In order to evaluate telomerasic activity, MCF-7, H-125 and M14 tumor cells were treated for 48 hours with serial doses of methyl-spirane (from 1.25 μg/ml to 50 μg/ml) as above described. Subsequently, the cells have been detached from culture plates by trypsinization, centrifuged, pelletized, and stored at −80° C. until the use.
As to telomerase, the cells have been exposed in vitro at 1.25, 12.5, 25, 50 μg/ml of methyl-spirane and evaluated for telomerasic activity (TLMA) using ELISA assay, 48 hours after the treatment. […] Particularly, in the FIG. 10, panels A-C, the effects at various concentrations (1.25, 12.5, 25, 50) of methyl-spirane on MCF-7, H-125 and M14 cell, lines after 48 hours of treatment are shown.

[6] = system: peripheral blood lymphocytes (PBL) from healthy donors; assay: Toxicity on not tumor healthy human cells, supravital propidium iodide method; format: cell-based; details: for % apoptotic / % necrotic / % viable: PBL, 48 hours
Description: […] After 24 and 48 hours of culture, treated lymphocytes have been analyzed using supravital propidium iodide method (PI).
IN short this system is based on the use of propidium iodide, a fluorescent marker for the cellular DNA that normally penetrates only into the fixed or permeable made cells. PI supravital method is based on the principle that supravital exposure to propidium (high concentration of propidium for some hours at 37° C.) of not previously permeable made cells identifies in the population apoptotic cells clearly distinguishing them from necrotic or viable ones. Cells labeled with 40 μg/ml of propidium iodide directly in culture plates, are incubated at 37° for 1 hour and 30 minutes and analyzed using the flow cytometer.

[7] = system: 60 haematological and epithelial human cancer cell lines of NCI panel; details: 60 human cancer cell lines, NCI panel (Uckun et al., 2000); cited from earlier work

Cδ protein kinase, sequence (Q05655 whole entry): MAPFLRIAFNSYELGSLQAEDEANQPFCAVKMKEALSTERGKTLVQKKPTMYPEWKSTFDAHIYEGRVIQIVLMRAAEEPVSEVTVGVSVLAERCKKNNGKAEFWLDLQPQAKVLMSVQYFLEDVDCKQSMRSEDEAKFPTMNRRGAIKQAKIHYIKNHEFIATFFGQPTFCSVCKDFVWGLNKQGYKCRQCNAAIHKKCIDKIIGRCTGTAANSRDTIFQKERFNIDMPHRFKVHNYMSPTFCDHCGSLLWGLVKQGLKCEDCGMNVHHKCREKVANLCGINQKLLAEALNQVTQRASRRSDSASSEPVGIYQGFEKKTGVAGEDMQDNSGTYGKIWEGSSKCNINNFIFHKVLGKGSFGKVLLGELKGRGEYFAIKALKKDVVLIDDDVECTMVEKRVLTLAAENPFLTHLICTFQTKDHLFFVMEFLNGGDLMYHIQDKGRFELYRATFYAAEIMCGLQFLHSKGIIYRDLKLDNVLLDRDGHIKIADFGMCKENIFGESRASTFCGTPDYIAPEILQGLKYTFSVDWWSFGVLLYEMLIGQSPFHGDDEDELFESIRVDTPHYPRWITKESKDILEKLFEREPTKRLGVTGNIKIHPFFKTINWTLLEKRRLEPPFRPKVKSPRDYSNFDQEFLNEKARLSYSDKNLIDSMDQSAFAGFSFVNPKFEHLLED

Compound: C/C=C/C(=O)CC1CCC(C)C(CC(=O)NCC(O)C(C)C(=O)NCCCC2OC3(CCC2C)COCC(CCC(C)/C=C(\C)C(C)O)C3)O1 (centres unmarked) [B[…]]
activation of Cδ protein kinase (PKCs isoform) [1]: specific activator

telomerase enzymatic activity ([5]; H-125): very scarcely influenced
telomerase enzymatic activity ([5]; MCF-7): very scarcely influenced
inhibition at 12.5 µg/mL ([5]; 12.5 μg/ml, M14): 61%
inhibition at 25 µg/mL ([5]; 25 μg/ml, M14): 75%
inhibition at 50 µg/mL ([5]; 50 μg/ml, two cell lines not named (of MCF-7, H-125, M14)): 80%
telomerasic activity (TLMA) ([5]; 1.25, 12.5, 25, 50 μg/ml, all the examined cell lines): concentration-dependent reduction
inhibition at 12.5 µg/mL ([5]; MCF7, 12.5 μg/ml, MCF-7): 43%
inhibition at 25 µg/mL ([5]; MCF7, 25 μg/ml, MCF-7): 64%
inhibition at 12.5 µg/mL ([5]; NCI-H125, 12.5 μg/ml, H-125): 50%
inhibition at 25 µg/mL ([5]; NCI-H125, 25 μg/ml, H-125): 68%
Compound: CC1CCCC2(OC(O)C=CC2=O)O1 (centres unmarked) [methyl-spirane, 1,7-dioxaspiro[5,5]-8-methyl-undecen-3-en-5-oxa-2-ol]
effect on tumour cell growth in vitro [2]: inhibiting effects
effect on cell cycle (G1 step) [3]: increment of the G1 step
apoptosis induction ([4]; M14, 25 μg/ml, after 24 hours): apoptosis is already observed
concentration-dependent increase of apoptosis ([4]; M14, concentrations higher than 1.25 μg/ml, after 72 hours of treatment): 30-50%
% apoptotic ([6]; 3.15 μg/ml): 2.5%
% necrotic ([6]; 3.15 μg/ml): 16%
% viable ([6]; 3.15 μg/ml): 81.5%
% apoptotic ([6]; 6.25 μg/ml): 6.4%
% necrotic ([6]; 6.25 μg/ml): 15.6%
% viable ([6]; 6.25 μg/ml): 78%
% apoptotic ([6]; 12.5 μg/ml): 30.1%
% necrotic ([6]; 12.5 μg/ml): 40.0%
% viable ([6]; 12.5 μg/ml): 29.7%
% apoptotic ([6]; 25 μg/ml): 33.1%
% necrotic ([6]; 25 μg/ml): 56.6%
% viable ([6]; 25 μg/ml): 10.0%
% apoptotic ([6]; 50 μg/ml): 21.7%
% necrotic ([6]; 50 μg/ml): 70.0%
% viable ([6]; 50 μg/ml): 8.2%
% apoptotic ([6]; 100 μg/ml): 15.0%
% necrotic ([6]; 100 μg/ml): 84.0%
% viable ([6]; 100 μg/ml): 1.0%
necrosis with respect to the control on human lymphocytes ([6]; low concentrations (for example, 1.25 μg/ml)): no increase of necrosis

Compound: spongistatin 1
cytotoxicity IC50 [7]: sub-nanomolar
